Reference: patent US20070155730A1, “Benzodiazepine And Benzopiperazine Analog Inhibitors Of Histone Deacetylase” (METHYLGENE, INC., priority 2005, published 2007)

Target: histone deacetylase (HDAC)
Test: Inhibition of Histone Deacetylase Enzymatic Activity
Format: biochemical
Details: substrate Boc-Lys(Ac)-AMC, Fluor-de-Lys developer, 37° C., 20 min; against one or more of HDAC-1 to HDAC-11, SirT1 to SirT7 (isoform not given); read-out: HDAC Inhibitory Activity (IC50)
Protocol: The following protocol is used to assay the compounds of the invention. In the assay, the buffer used is 25 mM HEPES, pH 8.0, 137 mM NaCl, 2.7 mM KCl, 1 mM MgCl2 and the substrate is Boc-Lys(Ac)-AMC in a 50 mM stock solution in DMSO. The enzyme stock solution is 4.08 μg/mL in buffer.
The compounds are pre-incubated (2 μl in DMSO diluted to 13 μl in buffer for transfer to assay plate) with enzyme (20 μl of 4.08 μg/mL) for 10 min at room temperature (35 μl pre-incubation volume). The mixture is pre-incubated for 5 min at room temperature. The reaction is started by bringing the temperature to 37° C. and adding 16 μl substrate. Total reaction volume is 50 μl. […] A plate is incubated in the dark for 10 min at room temperature before reading (λEX=360 nm, λEm=470 nm, Cutoff filter at 435 nm).
In the table, “A” indicates inhibitory activity at a concentration of <0.05 μM; “B” indicates inhibitory activity at a concentration >0.05 μM but <0.5 μM, “C” indicates inhibitory activity at >0.5 μM but <2 μM and “D” indicates inhibitory activity at a concentration of >2 μM but <10 μM.

Row | IC50 | SMILES
1 | 0.5 to 2 µM | O=C(/C=C/c1ccc2c(c1)NC(=O)[C@H](Cc1c[nH]c3ccccc13)N2)NO [Compound 66c, (E)-3-((S)-2-((1H-indol-3-yl)methyl)-1,2,3,4-tetrahydro-3-oxoquinoxalin-6-yl)-N-hydroxyacrylamide]
2 | 0.05 to 0.5 µM | O=C(/C=C/c1ccc2c(c1)NC(=O)[C@@H](Cc1c[nH]c3ccccc13)N2)NO [Compound 66f, (E)-3-((R)-2-((1H-indol-3-yl)methyl)-1,2,3,4-tetrahydro-3-oxoquinoxalin-6-yl)-N-hydroxyacrylamide]
3 | 0.5 to 2 µM | CC(C)C[C@@H]1NC(=O)c2ccccc2N(CCCCCC(=O)NO)C1=O [Compound 68b1, 6-((S)-2,3,4,5-tetrahydro-3-isobutyl-2,5-dioxobenzo[e][1,4]diazepin-1-yl)-N-hydroxyhexanamide]
4 | 0.05 to 0.5 µM | CC(C)(C)C[C@@H]1NC(=O)c2ccccc2N(CCCCCC(=O)NO)C1=O [Compound 68b3, 6-((S)-2,3,4,5-tetrahydro-3-neopentyl-2,5-dioxobenzo[e][1,4]diazepin-1-yl)-N-hydroxyhexanamide]
5 | 0.05 to 0.5 µM | O=C(CCCCCN1C(=O)[C@@H](c2ccccc2)NC(=O)c2ccccc21)NO [Compound 68b4, 6-((R)-2,3,4,5-tetrahydro-2,5-dioxo-3-phenylbenzo[e][1,4]diazepin-1-yl)-N-hydroxyhexanamide]
6 | 2 to 10 µM | O=C(CCCCCN1C(=O)[C@H](Cc2c[nH]c3ccccc23)NC(=O)c2ccccc21)NO [Compound 68b7, 6-((S)-3-((1H-Indol-3-yl)methyl)-2,3,4,5-tetrahydro-2,5-dioxobenzo[e][1,4]diazepin-1-yl)-N hydroxyhexanamide]
7 | 0.05 to 0.5 µM | O=C(CCCCCN1C(=O)[C@@H](Cc2c[nH]c3ccccc23)NC(=O)c2ccccc21)NO [Compound 68b8, 6-((R)-3-((1H-Hz, indol-3-yl)methyl)-2,3,4,5-tetrahydro-2,5-dioxobenzo[e][1,4]diazepin-1-yl)-N-hydroxyhexanamide]
8 | 0.5 to 2 µM | O=C(CCCCCN1C(=O)[C@@H](Cc2ccncc2)NC(=O)c2ccccc21)NO [Compound 68b9, 6-((R)-2,3,4,5-Tetrahydro-2,5-dioxo-3-((pyridin-4-yl)methyl)benzo [e][1,4]diazepin-1-yl)-N-hydroxyhexanamide]
9 | 0.05 to 0.5 µM | O=C(CCCCCN1C(=O)[C@H](c2ccccc2)NC(=O)c2ccccc21)NO [Compound 68b11, 6-((S)-2,3,4,5-tetrahydro-2,5-dioxo-3-phenylbenzo[e][1,4]diazepin-1-yl)-N-hydro-xyhexanamide]
10 | 0.05 to 0.5 µM | CC(C)C[C@H]1NC(=O)c2ccccc2N(CCCCCC(=O)NO)C1=O [Compound 68b12, 6-((R)-2,3,4,5-tetrahydro-3-isobutyl-2,5-dioxobenzo[e][1,4]diazepin-1-yl)-N-amide]
11 | 2 to 10 µM | O=C(CCCCCN1C(=O)C2(CCCC2)NC(=O)c2ccccc21)NO [Compound 68b16, 6-(3,3-Spirocyclopentyl-2,5-dioxo-2,3,4,5, tetrahydrobenzo [e][1,4]diazepin-1-yl)-N-hydroxyhexanamide]
12 | 0.05 to 0.5 µM | CC(C)(C)C[C@H]1NC(=O)c2ccccc2N(CCCCCC(=O)NO)C1=O [Compound 68b18, 6-((R)-2,3,4,5-Tetrahydro-3-neopentyl-2,5-dioxobenzo[e][1,4]diazepin-1-yl)-N-hydroxyhexanamide]
13 | 0.5 to 2 µM | O=C(CCCCCN1C(=O)[C@H](C2CCCCC2)NC(=O)c2ccccc21)NO [Compound 68b19, 6-((S)-3-Cyclohexyl-2,3,4,5-tetrahydro-2,5-dioxobenzo[e][1,4]diazepin-1-yl)-N-hydroxyhexanamide]
14 | 0.5 to 2 µM | O=C(CCCCCN1C(=O)[C@H](CC2CCCCC2)NC(=O)c2ccccc21)NO [Compound 68b20, 6-((S)-3-(Cyclohexylmethyl)-2,3,4,5-tetrahydro-2,5-dioxobenzo[e][1,4]diazepin-1-yl)-N-hydroxyhexanamide]
15 | 0.05 to 0.5 µM | O=C(CCCCCN1C(=O)[C@@H](CC2CCCCC2)NC(=O)c2ccccc21)NO [Compound 68b21, 6-((R)-3-(cyclohexylmethyl)-2,3,4,5-tetrahydro-2,5-dioxobenzo[e][1,4]diazepin-1-yl)-N-hydroxyhexanamide]
16 | 0.5 to 2 µM | C[C@@H]1NC(=O)c2ccccc2N(CCCCCC(=O)NO)C1=O [Compound 68b22, 6-((S)-2,3,4,5-Tetrahydro-3-methyl-2,5-dioxobenzo[e][1,4]diazepin-1-yl)-N-hydroxyhexanamide]
17 | 0.05 to 0.5 µM | C[C@H]1NC(=O)c2ccccc2N(CCCCCC(=O)NO)C1=O [Compound 68b23, 6-((R)-2,3,4,5-Tetrahydro-3-methyl-2,5-dioxobenzo[e][1,4]diazepin-1-yl)-N-hydroxyhexanamide]

Row | IC50 | SMILES
18 | 0.5 to 2 µM | O=C(CCc1ccc2c(c1)NC(=O)[C@H](Cc1c[nH]c3ccccc13)N2)NO [Compound 69, 3-((S)-2-((1H-indol-3-yl)methyl)-1,2,3,4-tetrahydro-3-oxoquinoxalin-6-yl)-N-hydroxypropanamide]
19 | 2 to 10 µM | CC(C)C[C@H]1NC(=O)c2ccccc2N(CCCCCC(=O)Nc2ccccc2N)C1=O [Compound 71, N-(2-Aminophenyl)-6-((R)-2,3,4,5-tetrahydro-3-isobutyl-2,5-dioxobenzo[e][1,4]diazepin-1-yl)hexanamide]
20 | 2 to 10 µM | CC(C)C[C@H]1NC(=O)c2ccccc2N(CCCCCC(=O)Nc2cscc2N)C1=O [Compound 72, N-(4-Aminothiophen-3-yl)-6-((R)-2,3,4,5-tetrahydro-3-isobutyl-2,5-dioxobenzo[e][1,4]diazepin-1-yl)hexanamide]
21 | 0.05 to 0.5 µM | O=C(CCCCCC1NC(=O)c2ccccc2NC1=O)NO (stereo not shown) [Compound 74, 6-(2,3,4,5-Tetrahydro-2,5-dioxo-1H-benzo[e][1,4]diazepin-3-yl)-N-hydroxyhexanamide]
22 | 0.05 to 0.5 µM | O=C(CCCCCC1NC(=O)c2ccccc2N(CCc2c[nH]c3ccccc23)C1=O)NO (stereo not shown) [Compound 79, 6-(1-(2-(1H-Indol-3-yl)ethyl)-2,3,4,5-tetrahydro-2,5-dioxo-1H-benzo[e][1,4]diazepin-3-yl)-N-hydroxyhexanamide]
23 | 0.05 to 0.5 µM | O=C(CCCCCC1NC(=O)c2ccccc2N(Cc2ccccc2)C1=O)NO (stereo not shown) [Compound 80, 6-(1-Benzyl-2,3,4,5-tetrahydro-2,5-dioxo-1H-benzo[e][1,4]diazepin-3-yl)-N-hydroxyhexanamide]
24 | 0.5 to 2 µM | COc1cc(CN2C(=O)C(CCCCCC(=O)NO)NC(=O)c3ccccc32)cc(OC)c1 (stereo not shown) [Compound 81, 6-(1-(3,5-Dimethoxybenzyl)-2,3,4,5-tetrahydro-2,5-dioxo-1H-benzo[e][1,4]diazepin-3-yl)-N-hydroxyhexanamide]
25 | 0.5 to 2 µM | COc1ccc(CN2C(=O)C(CCCCCC(=O)NO)NC(=O)c3ccccc32)cc1 (stereo not shown) [Compound 82, 6-(1-(4-Methoxybenzyl)-2,3,4,5-tetrahydro-2,5-dioxo-1H-benzo[e][1,4]diazepin-3-yl)-N-hydroxyhexanamide]
26 | 0.5 to 2 µM | O=C(CCCCCC1NC(=O)c2ccccc2N(CCc2ccccc2)C1=O)NO (stereo not shown) [Compound 83, 6-(2,3,4,5-tetrahydro-2,5-dioxo-1-phenethyl-1H-benzo[e][1 ,4]diazepin-3-yl)-N-hydroxyhexanamide]
27 | 0.05 to 0.5 µM | O=C(CCCCCC1NC(=O)c2cc(Oc3ccccc3)ccc2NC1=O)NO (stereo not shown) [Compound 88a, 6-(2,3,4,5-Tetrahydro-2,5-dioxo-7-phenoxy-1H-benzo[e][1,4]diazepin-3-yl)-N-hydroxyhexanamide]
28 | 0.05 to 0.5 µM | O=C(CCCCCC1NC(=O)c2cc(NC(=O)OCc3ccccc3)ccc2NC1=O)NO (stereo not shown) [Compound 92a, 6-(7-Benzyloxycarbonylamino-2,3,4,5-tetrahydro-2,5-dioxo-1H-benzo[e][1,4]diazepin-3-yl)-N-hydroxyhexanamide]
29 | 0.05 to 0.5 µM | O=C(CCCCC[C@@H]1NC(=O)c2cc(NC(=O)OCc3ccccc3)ccc2NC1=O)NO [Compound 92b, (S)-Benzyl 3-(6-(hydroxyamino)-6-oxohexyl)-2,5-dioxo-2,3,4,5-tetrahydro-1H-benzo[e][1,4]diazepin-7-ylcarbamate]
30 | 2 to 10 µM | CC(C)[C@H]1NC(=O)c2ccc(C(=O)NO)cc2NC1=O [Compound 97a, (R)—N-Hydroxy-3-isopropyl-2,5-dioxo-2,3,4,5-tetrahydro-1H-benzo[e][1,4]diazepine-8-carboxamide]
31 | 2 to 10 µM | CC(C)[C@@H]1NC(=O)c2ccc(C(=O)NO)cc2NC1=O [Compound 97b, (S)-N-Hydroxy-3-isopropyl-2,5-dioxo-2,3,4,5-tetrahydro-1H-benzo[e][1,4]diazepine-8-carboxamide]
32 | 0.5 to 2 µM | O=C(NO)c1ccc2c(c1)NC(=O)[C@H](Cc1c[nH]c3ccccc13)NC2=O [Compound 97c, (S)-3-((1H-Indol-3-yl)methyl)-N-hydroxy-2,5-dioxo-2,3,4,5-tetrahydro-1H-benzo[e][1,4]diazepine-8-carboxamide]
33 | 0.5 to 2 µM | O=C(NO)c1ccc2c(c1)NC(=O)[C@@H](Cc1c[nH]c3ccccc13)NC2=O [Compound 97d, (R)-3-((1H-Indol-3-yl)methyl)-N-hydroxy-2,5-dioxo-2,3,4,5-tetrahydro-1H-benzo[e][1,4]diazepine-8-carboxamide]
34 | 2 to 10 µM | CC(C)C[C@H]1NC(=O)c2ccc(C(=O)NO)cc2NC1=O [Compound 97f, (R)-N-Hydroxy-3-isobutyl-2,5-dioxo-2,3,4,5-tetrahydro-1H-benzo[e][1,4]diazepine-8-carboxamide]
